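Exposure lasted 48 hours, with cells grown in 96-well plates and compounds tested at five concentrations. TGI: concentration producing complete growth inhibition.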
Key:
Assay in all cases: NCI tumour cell line growth inhibition, 48 h
[1] = test system: CCRF-CEM leukemia
[2] = test system: MCF7 breast
[3] = test system: TK-10 renal
[4] = test system: OVCAR-4 ovarian
[5] = test system: HS 578T breast
[6] = test system: SK-MEL-2 melanoma
[7] = test system: U251 CNS
[8] = test system: NCI-H226 lung

| Structure (SMILES) | TGI [1] [µM] | TGI [2] [µM] | TGI [3] [µM] | TGI [4] [µM] | TGI [5] [µM] | TGI [6] [µM] | TGI [7] [µM] | TGI [8] [µM] |
| --- | --- | --- | --- | --- | --- | --- | --- | --- |
| CC(=O)/C=C/C1=C(C)CCCC1(C)CC(C)C (configuration not stated) | 36.6 | 66.9 | > 100 | > 100 | > 100 | 43.5 | 86.7 | > 100 |
| Cc1cccc(Cn2c3c(c4cc(O)ccc42)C(=O)c2ccccc2C3=O)c1 | > 100 | 98.1 | > 100 | 4.57 | > 100 | > 100 | 88.3 | > 100 |
| CCOC(=O)N1CCN(Cc2cc(=O)n3ccc(C)cc3n2)CC1 | > 100 | > 100 | > 100 | > 100 | > 100 | > 100 | > 100 | > 100 |
| C=C1CCN2CC[C@@H](OC(=O)/C(C)=C\C)[C@@H]12 | > 100 | > 100 | > 100 | > 100 | > 100 | > 100 | > 100 | > 100 |
| C[C@]12CCC3C4=C(CCC3C1CCC2=O)C(=O)[C@H]1O[C@H]1C4=O (some centres not stated) | 4.07 | 4.14 | 10.8 | 7.96 | > 30.5 | 26.5 | 8.38 | 4.99 |
| Cc1ccc(NC(=O)c2ccc(OP(=O)(O)Nc3ccc(C)cc3)cc2)cc1 | > 100 | > 100 | > 100 | > 100 | > 100 | > 100 | > 100 | > 100 |
| O=C(/C=C/c1ccccc1)C[C@@H](O)C[C@@H]1CC=CC(=O)O1 | 5.12 | 11.4 | 28.9 | 45.7 | > 87.3 | 33.9 | 21.7 | > 100 |
| COP(=O)(OC)C1=c2c(C)noc2=C2C=COC2C1=O (configuration not stated) | > 100 | > 100 | > 100 | > 100 | > 100 | > 100 | > 100 | > 100 |
| Cc1cc(C)nc(NS(=O)(=O)c2ccc(NC(=O)c3ccc4nc5ccccc5c(Nc5ccc(S(N)(=O)=O)cc5)c4c3)cc2)n1 | 78.3 | > 100 | > 100 | > 100 | > 100 | > 100 | > 100 | > 100 |
| O=C(NCc1ccccc1)c1n[nH][nH]c1=O | > 100 | > 100 | > 100 | > 100 | > 100 | > 100 | > 100 | > 100 |
| COC(=O)c1c(C)nc2c1cc(O)c1[nH]c(C)c(C)nc12 | > 100 | > 100 | > 100 | > 100 | > 100 | > 100 | > 100 | > 100 |
| [N-]=[N+]=NC(c1ccccc1)(c1ccccc1)c1ccccc1 | 55.4 | 35.7 | 32.4 | 57.9 | 51.8 | 29.3 | 29.2 | 33.2 |
| Cc1cc(-c2nc3ccc(F)cc3s2)ccc1NC(=O)[C@H](C)N | 6.23 | 13.1 | 5.11 | 24.4 | 28.5 | 25.2 | 9.06 | 19.3 |
| NS(=O)(=O)c1nnc(NC(=O)Nc2ccc(Cl)c(Cl)c2)s1 | 37.3 | 88.3 | 43.9 | > 100 | 75.9 | 74.2 | > 100 | 65.8 |
